The IC50 is the concentration at which inhibition is half-maximal. A lower IC50 goes with inhibition by little substance.

We go through 93 compounds from PubChem BioAssay AID1417 (Emory University Molecular Libraries Screening Center, 2008).

A value given as a limit tells only on which side of the number the result lay.

The target of the assay is Induced myeloid leukemia cell differentiation protein Mcl-1 (Homo sapiens) (UniProt Q07820). The assay can be described thus: Mcl-1 Noxa peptide disruption concentration-response – biochemical, TR-FRET, dose response (AID 1417). Particulars: Mcl-1/Noxa peptide interaction, cell-free TR-FRET (terbium/rhodamine), 2 h; measured here: absolute IC50.
Induced myeloid leukemia cell differentiation protein Mcl-1 (Homo sapiens), sequence (Q07820 whole entry, looked up): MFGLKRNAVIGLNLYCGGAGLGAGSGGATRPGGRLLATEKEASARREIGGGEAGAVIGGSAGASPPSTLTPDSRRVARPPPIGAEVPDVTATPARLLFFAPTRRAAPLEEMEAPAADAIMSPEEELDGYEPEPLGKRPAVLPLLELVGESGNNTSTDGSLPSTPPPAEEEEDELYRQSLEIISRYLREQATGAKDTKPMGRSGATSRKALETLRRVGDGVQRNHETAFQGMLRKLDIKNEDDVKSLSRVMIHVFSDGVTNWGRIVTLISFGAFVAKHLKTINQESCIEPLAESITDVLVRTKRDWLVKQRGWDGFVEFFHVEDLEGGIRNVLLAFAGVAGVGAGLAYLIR

`Cc1cc(-c2nc3c4c5c(sc4[nH]c(=O)n3n2)CCC5)c(C)o1` returned an IC50 of less than 0.4 µM.

The compound `O=c1cc(-c2ccc(O)c(-c3c(O)cc(O)c4c(=O)cc(-c5ccc(O)cc5)oc34)c2)oc2cc(O)cc(O)c12` came in with an IC50 of 1.78 µM.

In turn, `COc1ccccc1NC1=C(NC(C)=O)C(=O)c2ccccc2C1=O` had an IC50 of 2.48 µM.

`Nc1ccc(Cc2ccc(N)c(O)c2)cc1O` gave an IC50 of less than 0.4 µM.

The compound `COc1cccc(C(=O)Nc2cc(Cl)c(O)c(Cl)c2)c1` registered an IC50 of more than 54 µM.

`Cc1ccc(-c2ccc(/C=C3/NC(=O)NC3=O)o2)cc1[N+](=O)[O-]` came in with an IC50 of 6.44 µM. In other words, the single-digit micromolar range.

Consider `CCOC(=O)c1[nH]c2c(c1C)C(=O)CC(c1ccco1)C2` (stereo not drawn), for which the IC50 was 5.64 µM.

`O=C(NN1C(=O)/C(=C/C=C/c2ccco2)SC1=S)c1ccncc1`: the IC50 was found to be 2.23 µM. This IC50 is about 2.5-fold lower than that of the compound before.

As for `CCN(CC)S(=O)(=O)c1cccc(C(=O)N/N=C/c2ccc(O)c(O)c2O)c1`, the IC50 is less than 0.4 µM.

Turning to `COc1cc(/C=C(/NC(C)=O)C(=O)O)cc(Cl)c1OCc1ccc(Br)cc1`, the IC50 was more than 54 µM.

`COc1ccccc1Nc1nc(-c2sc(NC(=O)c3ccc([N+](=O)[O-])cc3)nc2C)cs1` yielded an IC50 of less than 0.4 µM.

Consider `O=C1C(=Cc2cccn2-c2ccccc2)C(=O)c2ccccc21`, for which the IC50 was found to be 5.19 µM.

With `CCOc1ccccc1Nc1nc(-c2sc(NC(=O)c3ccc([N+](=O)[O-])cc3)nc2C)cs1`, the IC50 was less than 0.4 µM.

The compound `CS(=O)(=O)C1=NSC2=NC(=O)/C(=C\c3cccn3-c3ccc(Cl)cc3)C(=N)N21` gave an IC50 of 3.74 µM.

In the case of `Cc1nc(S/C(=C\c2ccc(-c3ccc(C(=O)O)c(Cl)c3)o2)C(=O)O)n[nH]1`, the IC50 was less than 0.4 µM.

The compound `Cc1sc(-n2c(C)cc(/C=C3\SC(=S)NC3=O)c2C)c(C#N)c1C` had a 50% inhibitory concentration (IC50) of 4.07 µM.

As for `O=C1/C(=C\c2ccc(O)cc2)SC(=S)N1/N=C/c1ccc(O)cc1`, the IC50 came out at 2.99 µM.

On to `CCN(CC)c1ccc(NC(=O)CCCOc2cccc(C)c2)cc1`, for which the IC50 was more than 54 µM.

As for `COc1ccc2[nH]c3c4c(ccc3c2c1)C(=O)C=CC4=O`, the IC50 is less than 0.4 µM.

`O=[N+]([O-])c1ccc(-c2cc(-c3ccc(Cl)cc3)n[nH]2)cc1` yielded an IC50 of 5.61 µM.

The compound `CCNc1ccc(Br)cc(C(=O)/C=C/c2c(Cl)cccc2Cl)c1=O` returned an IC50 of 1.8 µM.

Compound `CN(C)S(=O)(=O)c1cccc(-c2nn(-c3ccccc3)cc2/C=C2\SC(=S)N(CC(=O)O)C2=O)c1` displayed an IC50 of 4.28 µM.

For `Cc1ccc(N2C(=O)NC(=O)/C(=C\c3cnc(-c4ccccc4)nc3)C2=O)cc1`, the IC50 is 20.2 µM.

Take `N/C(=N\N=C/c1ccc(-c2ccc(O)c(C(=O)O)c2)o1)N[N+](=O)[O-]`: the IC50 was 2.65 µM.

Consider `CNc1ccc(Br)cc(C(=O)/C=C/c2ccc(Cl)cc2Cl)c1=O`, for which the IC50 came out at 1.41 µM. Against the preceding compound, the IC50 is about 1.9-fold lower.

`C=C(C)C(=O)Nc1cccc(C2=NOC3(C2)C[C@@H](C(N)=O)N(C(=O)/C(C)=C/C)C3)c1` (stereo partly drawn) yielded an IC50 of more than 54 µM.

Regarding `CC(C)(C)c1ccc(CN2N=Nc3ccccc3S2(=O)=O)cc1`, the IC50 came out at 18.9 µM.

`CN(C)c1ccc(NC(=O)CN2C(=O)CN=C(c3ccccc3)c3cc(Cl)ccc32)cc1` displayed an IC50 of more than 54 µM.

Take `Clc1cccc(N/N=C/c2ccc(N3CCOCC3)s2)c1`: the IC50 is less than 0.4 µM.

As for `O=S(=O)(Nc1cc(Sc2ncn[nH]2)c(O)c2ccccc12)c1ccccc1`, the IC50 is less than 0.4 µM.

`COc1ccc(N2CCC(CNS(=O)(=O)c3cccc(C(F)(F)F)c3)C2)cc1` (stereo not drawn): the IC50 is less than 0.4 µM.

In turn, `Cc1ccc(C(=O)Nc2ccc(N3CCCC3)cc2)cc1` displayed an IC50 of more than 54 µM.

`CSc1nnc(-c2ccco2)c(-c2ccco2)n1` registered an IC50 of 13.2 µM.

Compound `CC1=C(C(=O)OCC(C)C)C(c2ccsc2)NC(=O)N1` (stereo not drawn) came in with an IC50 of more than 54 µM.

Compound `O=C(c1ccccc1)c1ccc2nc(-c3ccco3)c(-c3ccco3)nc2c1` registered an IC50 of 4.34 µM.

For `c1ccc(-c2ccc(-c3n(-c4ccccn4)c4ccccc4[n+]3-c3ccccn3)cc2)cc1`, the IC50 stood at 34.6 µM.

Turning to `COc1cccc(-n2c(SCc3cc(=O)oc4cc(O)c(O)cc34)nc3ccccc3c2=O)c1`, the concentration for half-maximal inhibition (IC50) worked out at 2.18 µM.

`CCN(CC)c1ccc(NC(=O)Nc2ccc(C(C)=O)cc2)cc1` showed an IC50 of more than 54 µM.

For the compound `COc1ccc(C(=O)Nc2ccc(N3CCCC3)cc2)cc1`, the IC50 was 2.65 µM.

`CCOc1cc(/C=C2\C(=O)N(c3nc(-c4ccc(Br)cc4)cs3)N=C2c2ccccc2)ccc1O` registered an IC50 of 1.65 µM.

For the compound `CS(=O)(=O)c1ccc(C(=O)NCCN2C(=O)S/C(=C\c3cccnc3)C2=O)cc1[N+](=O)[O-]`, the IC50 is 3.15 µM. This IC50 lies about 1.9-fold higher than the previous one.

As for `COc1ccc2nc(-c3ccco3)c(-c3ccco3)nc2c1`, the IC50 stood at 2.25 µM.

`Cc1ccc(-n2nc3cc(C)c(N)cc3n2)cc1` yielded an IC50 of less than 0.4 µM.

`C=C(C)C(=O)Nc1cccc(C2=NOC3(C2)C[C@@H](C(N)=O)N(C(=O)c2cc([N+](=O)[O-])cc([N+](=O)[O-])c2C)C3)c1` (stereo partly drawn) yielded an IC50 of 4.09 µM.

As to `O=C(Nc1ccc2nc(-c3ccc4nc[nH]c4c3)[nH]c2c1)c1cccs1`, the IC50 amounted to 2.7 µM.

`CCCOc1ncnc2c1[nH]c1ccccc12` showed an IC50 of more than 54 µM.

Turning to `Nc1ccc(O)c2c1C(=O)c1ccccc1C2=O`, the 50% inhibitory concentration (IC50) is 1.88 µM.

In the case of `O=[N+]([O-])c1ccc2[nH]c(O)c(N=NC(=S)Nc3cccnc3)c2c1`, the IC50 worked out at 8.86 µM. Compared with the last compound, the IC50 is about 4.7-fold higher.

On to `CN(C)c1ccc(C(CNC(=O)c2ccc(C#N)cc2)c2c[nH]c3ccccc23)cc1` (stereo not drawn), for which the IC50 is more than 54 µM.

The compound `COc1ccc(Cc2nnc(NC(=O)Cc3cccs3)s2)cc1OC` registered a 50% inhibitory concentration (IC50) of 1.05 µM.

In the case of `O=c1/c(=C\c2cc([N+](=O)[O-])cc([N+](=O)[O-])c2O)sc2nc3ccccc3n12`, the IC50 is less than 0.4 µM.

The compound `CCOC(=O)c1c(C)oc2c1c(CN1CCN(C(=O)OCC)CC1)c(O)c1ccccc12` returned an IC50 of less than 0.4 µM.

Compound `COC(=O)[C@@]1(Cc2ccccc2)[C@H]2c3cc(C(=O)N4CCCC4)n(CCSCCO)c3C[C@H]2CN1C(=O)c1ccccc1` registered an IC50 of more than 54 µM.

Compound `O=C(COc1ccc2ccccc2c1)NNC(=O)c1ccc([N+](=O)[O-])cc1` showed an IC50 of 8.48 µM.

Turning to `O=C1NC(=S)N(c2ccccc2F)C(=O)/C1=C\c1cccs1`, the IC50 worked out at 3.77 µM.

Consider `Cc1ccc2[nH]c(O)c(N=Nc3nc4ccccc4s3)c2c1`, for which the half-maximal inhibitory concentration (IC50) came to 2.48 µM.

Regarding `O=C(COC(=O)c1ccc2c(c1)C(=O)N(Cc1ccncc1)C2=O)Nc1ccccc1[N+](=O)[O-]`, the IC50 stood at 2.53 µM.

Take `COc1ccccc1N1C(=O)C2ON(c3ccccc3)C(c3ccc(N(C)C)cc3)C2C1=O` (stereo not drawn): the IC50 is more than 54 µM.

`CSC1=N/C(=C\c2ccccc2F)C(=O)S1` registered an IC50 of more than 54 µM.

Compound `CCOc1cc(CNc2ccc(N3CCCC3)cc2)cc(Cl)c1OC` showed an IC50 of more than 54 µM.

`Nc1ccc2nc(-c3ccc(Cl)cc3)[nH]c2c1` came in with an IC50 of 30.5 µM.

For the compound `Cc1nc(NC(=O)c2ccccc2)sc1-c1csc(Nc2ccc(C(=O)O)cc2)n1`, the IC50 came to 3.6 µM.

With `O=C(Nc1ccc2nc(-c3ccco3)c(-c3ccco3)nc2c1)NC1CC1`, the IC50 came out at 1.33 µM.

`C/C(=C\c1ccco1)C1Nc2cccc3cccc(c23)N1` displayed an IC50 of 3.68 µM.

Compound `Cc1ccc(NC(=O)CN2C(=O)/C(=C3\SC(=S)N(C4CCS(=O)(=O)C4)C3=O)c3ccccc32)cc1` (stereo not drawn) gave an IC50 of less than 0.4 µM.

The compound `Nc1scc2c(C(=O)N/N=C/c3ccc(Cl)cc3)nn(-c3ccccc3)c(=O)c12` yielded an IC50 of 1.32 µM. In other words, the single-digit micromolar range.

In the case of `NC(=S)n1[nH]c(-c2ccc([N+](=O)[O-])cc2)c(N=Nc2ccccc2[N+](=O)[O-])c1=O`, the IC50 was less than 0.4 µM.

As for `CCN1C(=O)/C(=C\c2ccc(-c3ccc([N+](=O)[O-])cc3OC)o2)SC1=Nc1cccc(C(=O)O)c1`, the IC50 is less than 0.4 µM.

Consider `Cc1ccc(N=C2NC(=O)/C(=C/C=C/c3ccco3)S2)cc1`, for which the IC50 turned out to be 7.16 µM.

As for `CCOc1ccc(C(Nc2cccnc2)c2cc(Cl)c3cccnc3c2O)cc1` (stereo not drawn), the 50% inhibitory concentration (IC50) is 3.25 µM.

For the compound `Cc1ccc(NC(=O)c2cc(N3C(=O)C=CC3=O)ccc2Cl)cc1C`, the IC50 is less than 0.4 µM.

For `C=CCN=c1scc(-c2ccco2)n1/N=C/c1ccc(O)c(O)c1O`, the IC50 is more than 54 µM.

In the case of `CC(C)CCC(CCN1CCCC1)c1ccc2c(c1)OCO2` (stereo not drawn), the IC50 was more than 54 µM.

On to `CNc1ccc(Br)cc(C(=O)/C=C/c2cccc(Cl)c2Cl)c1=O`, for which the IC50 is 0.439 µM.

Consider `N#Cc1cc(-c2ccccc2)nn1-c1ccccc1`, for which the IC50 is less than 0.4 µM.

In the case of `C/C(=N\Nc1ccc(C(=O)O)cc1)c1ccc2c(c1)Nc1ccccc1S2`, the IC50 is less than 0.4 µM.

With `CCOc1cc(/C=C(\C#N)c2[nH]nc(N)c2C#N)ccc1O`, the IC50 is 4.6 µM.

`Cc1oc(-c2ccc(Cl)cc2)cc1-c1nn2c(-c3ccoc3C)nnc2s1`: the IC50 was more than 54 µM.

In turn, `CCOc1ccc(-c2ccc(/C=C3/C(=N)N4C=CSC4=NC3=O)o2)c([N+](=O)[O-])c1` registered an IC50 of 1.58 µM.

Compound `O=C(O)c1ccc(NS(=O)(=O)c2ccc3c(c2)C2C=CCC2C(c2ccccc2F)N3)cc1` (stereo not drawn) showed an IC50 of 1.27 µM.

For `Cc1ccc(CNC(=O)c2ccc(-n3cccc3)cc2)cc1`, the IC50 amounted to 2.26 µM.

As to `O=c1oc2c(O)c(O)cc3c(=O)oc4c(O)c(O)cc1c4c23`, the IC50 is less than 0.4 µM.

With `COc1ccccc1NC(=O)C(=O)N/N=C/c1ccc([N+](=O)[O-])s1`, the IC50 stood at 6.17 µM.

As for `COc1cc2cc3c(N)c(C(=O)Nc4sc(C)c(C)c4C#N)sc3nc2cc1OC`, the IC50 was 1.07 µM.

Take `CSc1ccc(/C=N/Nc2cccc(C(=O)O)c2)cc1`: the IC50 is 0.893 µM.

Regarding `O=C1CCCC2=C1C(c1ccc(O)c(O)c1)c1c(ccc3ncccc13)N2` (stereo not drawn), the IC50 is less than 0.4 µM.

The compound `COc1ccc(N2CCC(CNC(=S)Nc3cccc(OC)c3)C2)cc1` (stereo not drawn) returned an IC50 of more than 54 µM.

As to `O=c1c(Cl)c(N/N=C/c2ccc(Cl)cc2)cnn1-c1ccccc1`, the IC50 amounted to 4.42 µM. This counts as single-digit micromolar.

On to `CC1=Nc2ccc(C)cc2/C1=C/c1c(N)n2c(S(=O)(=O)C(C)C)nsc2nc1=O`, for which the IC50 is more than 54 µM.

On to `CC(/C=C/c1ccco1)=N\NC(=O)c1cc(C)[nH]n1`, for which the IC50 worked out at 5.64 µM.

The compound `O=C(N/N=C/c1ccc(O)c(O)c1O)/C(=C/c1ccc([N+](=O)[O-])cc1)NC(=O)c1ccccc1` yielded an IC50 of less than 0.4 µM.

Regarding `O=C(N=Nc1c(O)[nH]c2ccc([N+](=O)[O-])cc12)c1cc(-c2ccccc2Cl)nc2ccccc12`, the IC50 was less than 0.4 µM.

The compound `CC(C)n1c(Nn2cnnc2)nc2ccccc21` registered an IC50 of more than 54 µM.
